Test results reported in ChEMBL document CHEMBL1126795, “Amesergide and structurally related nor-D-ergolines: 5HT2 receptor interactions in the rat” (J Med Chem, 1993).

Test: Concentration required to inhibit pressor response to serotonin after 15 min i.v. administration of compound mediated via activation of vascular 5-HT2 receptors in rat
Type: functional, organism-based

Concentration, 1 mg/kg:
CN(CCC(=O)NC1CCCCC1)[C@H]1Cc2cccc3[nH]cc(c23)C1, CN(CCC(=O)NC1CCCCC1)[C@@H]1Cc2cccc3[nH]cc(c23)C1, CCCn1cc2c3c(cccc31)C[C@@H](N(C)CCC(=O)NC1CCCCC1)C2
